Data from ChEMBL document CHEMBL1201862, “PubChem BioAssay data set” (2004).
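Cultured in 96-well plates, cells were exposed to test compound for 48 hours across five concentrations. GI50: concentration for 50% inhibition of growth.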 The source made the active and inactive calls. Rule as the data show it: active = GI50 up to about 1.1 µM and inactive = higher.

What was measured:
Assay in all cases: NCI-60 cell line screen, 48 h
786-0 = tested on: 786-0
A498 = tested on: A498
A549 = tested on: A549
ACHN = tested on: ACHN
BT-549 = tested on: BT-549
CAKI-1 = tested on: CAKI-1
CCRF-CEM = tested on: CCRF-CEM
COLO 205 = tested on: COLO 205
DU-145 = tested on: DU-145
EKVX = tested on: EKVX
HCC 2998 = tested on: HCC 2998
HCT-116 = tested on: HCT-116
HCT-15 = tested on: HCT-15
HL-60 = tested on: HL-60
HOP-62 = tested on: HOP-62
HOP-92 = tested on: HOP-92
HT-29 = tested on: HT-29
Hs-578T = tested on: Hs-578T
IGROV-1 = tested on: IGROV-1
KM12 = tested on: KM12
LOX IMVI = tested on: LOX IMVI
M14 = tested on: M14
MCF7 = tested on: MCF7
MDA-MB-231 = tested on: MDA-MB-231
MDA-MB-435 = tested on: MDA-MB-435
MDA-N = tested on: MDA-N
MOLT-4 = tested on: MOLT-4
Malme-3M = tested on: Malme-3M
NCI-H226 = tested on: NCI-H226
NCI-H23 = tested on: NCI-H23
NCI-H460 = tested on: NCI-H460
NCI-H522 = tested on: NCI-H522
NCI/ADR-RES = tested on: NCI/ADR-RES
OVCAR-3 = tested on: OVCAR-3
OVCAR-4 = tested on: OVCAR-4
OVCAR-5 = tested on: OVCAR-5
OVCAR-8 = tested on: OVCAR-8
PC-3 = tested on: PC-3
RPMI-8226 = tested on: RPMI-8226
RXF 393 = tested on: RXF 393
SF-268 = tested on: SF-268
SF-295 = tested on: SF-295
SF-539 = tested on: SF-539
SK-MEL-28 = tested on: SK-MEL-28
SK-MEL-2 = tested on: SK-MEL-2
SK-MEL-5 = tested on: SK-MEL-5
SK-OV-3 = tested on: SK-OV-3
SN12C = tested on: SN12C
SNB-19 = tested on: SNB-19
SNB-75 = tested on: SNB-75
SW-620 = tested on: SW-620
T47D = tested on: T47D
TK-10 = tested on: TK-10
U-251 = tested on: U-251
UACC-257 = tested on: UACC-257
UACC-62 = tested on: UACC-62
UO-31 = tested on: UO-31
K562 = tested on: K562

CCCCCCc1cc2cc(C(=O)Nc3ccccc3)c(=N)oc2cc1O
GI50 (786-0): 3.21 µM (inactive) | GI50 (A498): 26.2 µM (inactive) | GI50 (A549): 3.27 µM (inactive) | GI50 (ACHN): 3.44 µM (inactive) | GI50 (BT-549): 9.25 µM (inactive) | GI50 (CAKI-1): 4.58 µM (inactive) | GI50 (CCRF-CEM): 3.47 µM (inactive) | GI50 (COLO 205): 38.4 µM (inactive) | GI50 (DU-145): 4.82 µM (inactive) | GI50 (EKVX): 3.29 µM (inactive) | GI50 (HCC 2998): 3.46 µM (inactive) | GI50 (HCT-116): 2.5 µM (inactive) | GI50 (HCT-15): 3.45 µM | GI50 (HL-60): 4.08 µM (inactive) | GI50 (HOP-62): 2.76 µM (inactive) | GI50 (HOP-92): 3.25 µM (inactive) | GI50 (HT-29): 3.28 µM (inactive) | GI50 (Hs-578T): 3.21 µM (inactive) | GI50 (IGROV-1): 2.92 µM (inactive) | GI50 (KM12): 2.51 µM (inactive) | GI50 (LOX IMVI): 3.23 µM (inactive) | GI50 (M14): 3.6 µM (inactive) | GI50 (MCF7): 4.35 µM (inactive) | GI50 (MDA-MB-231): 3.36 µM (inactive) | GI50 (MDA-MB-435): 3.53 µM (inactive) | GI50 (MDA-N): 3.88 µM (inactive) | GI50 (MOLT-4): 2.16 µM (inactive) | GI50 (Malme-3M): 1.98 µM (inactive) | GI50 (NCI-H226): > 25.6 µM (inactive) | GI50 (NCI-H23): 2.36 µM (inactive) | GI50 (NCI-H460): 3.24 µM (inactive) | GI50 (NCI-H522): 1.94 µM (inactive) | GI50 (NCI/ADR-RES): 3.27 µM (inactive) | GI50 (OVCAR-3): 2.09 µM (inactive) | GI50 (OVCAR-4): 4.13 µM (inactive) | GI50 (OVCAR-5): > 83.6 µM (inactive) | GI50 (OVCAR-8): 3.93 µM (inactive) | GI50 (PC-3): 2.86 µM (inactive) | GI50 (RPMI-8226): 4.08 µM (inactive) | GI50 (RXF 393): 5.56 µM (inactive) | GI50 (SF-268): 4.85 µM (inactive) | GI50 (SF-295): 3.05 µM (inactive) | GI50 (SF-539): 4.49 µM (inactive) | GI50 (SK-MEL-28): 6.87 µM (inactive) | GI50 (SK-MEL-2): 2.45 µM (inactive) | GI50 (SK-MEL-5): 2.56 µM (inactive) | GI50 (SK-OV-3): 3.34 µM (inactive) | GI50 (SN12C): 2.42 µM (inactive) | GI50 (SNB-19): 3.33 µM (inactive) | GI50 (SNB-75): > 23 µM (inactive) | GI50 (SW-620): 3.97 µM (inactive) | GI50 (T47D): 2.33 µM (inactive) | GI50 (TK-10): 6.78 µM (inactive) | GI50 (U-251): 2.99 µM (inactive) | GI50 (UACC-257): 4.63 µM (inactive) | GI50 (UACC-62): 2.26 µM (inactive) | GI50 (UO-31): 2.82 µM (inactive)

COc1ccc(CC2c3cc4c(cc3CCN2C)OCO4)c(C=O)c1OC (stereo not drawn)
GI50 (786-0): > 100 µM (inactive) | GI50 (A498): > 100 µM (inactive) | GI50 (A549): > 100 µM (inactive) | GI50 (ACHN): > 100 µM (inactive) | GI50 (BT-549): > 100 µM (inactive) | GI50 (CAKI-1): 60.5 µM (inactive) | GI50 (CCRF-CEM): > 100 µM (inactive) | GI50 (COLO 205): > 100 µM (inactive) | GI50 (DU-145): > 100 µM (inactive) | GI50 (EKVX): > 100 µM (inactive) | GI50 (HCC 2998): > 100 µM (inactive) | GI50 (HCT-116): > 100 µM (inactive) | GI50 (HCT-15): > 100 µM | GI50 (HL-60): > 100 µM (inactive) | GI50 (HOP-92): > 100 µM (inactive) | GI50 (HT-29): > 100 µM (inactive) | GI50 (Hs-578T): > 100 µM (inactive) | GI50 (IGROV-1): > 100 µM (inactive) | GI50 (K562): > 100 µM (inactive) | GI50 (KM12): > 100 µM (inactive) | GI50 (LOX IMVI): > 100 µM (inactive) | GI50 (M14): > 100 µM (inactive) | GI50 (MCF7): > 100 µM (inactive) | GI50 (MDA-MB-231): > 100 µM (inactive) | GI50 (MDA-MB-435): > 100 µM (inactive) | GI50 (MDA-N): > 100 µM (inactive) | GI50 (MOLT-4): > 100 µM (inactive) | GI50 (Malme-3M): > 100 µM (inactive) | GI50 (NCI-H226): 57.9 µM (inactive) | GI50 (NCI-H23): > 100 µM (inactive) | GI50 (NCI-H460): > 100 µM (inactive) | GI50 (NCI-H522): > 100 µM (inactive) | GI50 (NCI/ADR-RES): > 100 µM (inactive) | GI50 (OVCAR-3): > 100 µM (inactive) | GI50 (OVCAR-4): > 100 µM (inactive) | GI50 (OVCAR-5): > 100 µM (inactive) | GI50 (OVCAR-8): > 100 µM (inactive) | GI50 (PC-3): > 100 µM (inactive) | GI50 (RPMI-8226): > 100 µM (inactive) | GI50 (SF-268): > 100 µM (inactive) | GI50 (SF-295): > 100 µM (inactive) | GI50 (SF-539): > 100 µM (inactive) | GI50 (SK-MEL-28): > 100 µM (inactive) | GI50 (SK-MEL-2): > 100 µM (inactive) | GI50 (SK-MEL-5): > 100 µM (inactive) | GI50 (SK-OV-3): > 100 µM (inactive) | GI50 (SN12C): > 100 µM (inactive) | GI50 (SNB-19): > 100 µM (inactive) | GI50 (SNB-75): 40.8 µM (inactive) | GI50 (SW-620): > 100 µM (inactive) | GI50 (T47D): > 100 µM (inactive) | GI50 (TK-10): > 100 µM (inactive) | GI50 (U-251): > 100 µM (inactive) | GI50 (UACC-257): > 100 µM (inactive) | GI50 (UACC-62): > 100 µM (inactive) | GI50 (UO-31): > 100 µM (inactive)
